From article PMC6201930 (PLoS ONE, 2018)
Values joined by “and” are separate entries in the source; they are usually repeats but may differ in a detail not shown here. Equal entries are not always repeated. “Also recorded” adds a separate entry of the source.

Columns and labels:
in vivo = settings: zebrafish
Male Sprague Dawley rats = test: Fourteen day safety study in rats; type: in vivo; settings: for Animals completed study: 6 rats per group; for hematology: numbers of red and white blood cells or platelets vs vehicle: 14 days dosing, all dose groups; for accumulation over time (toxicokinetics): Day 1 and Day 14; for histopathology of liver and bone marrow: end of the 14 day dosing period; for urine lipocalin / urine albumin, clusterin, cystatin C and osteopontin: highest dose groups: G418 20 mg/kg, gentamicin X2 40 mg/kg; for urine albumin, clusterin, cystatin C and osteopontin: normalized to urinary creatinine
Procedure: To evaluate in vivo safety we administered the compounds daily to rats (n = 6 rats per dose group) by subcutaneous injection for 14 days.
Male Sprague Dawley rats were purchased from Charles River Laboratories, where 6 weeks old at time of study initiation. Rats were group-housed (3 rats per box) in solid bottom cages. Food and water were provided ad libitum. Rats were dosed daily by subcutaneous injection. […] Blood was collected for serum chemistry by retro-orbital bleeds on Day 7 and by terminal cardiac puncture on Day 14. For urine collection, rats were housed in metabolic cages for 6 hours. Toxicokinetics was evaluated on Day 1 and Day 14 (S4 Fig). Blood was obtained by retro-orbital bleeding at 0, 0.25, 0.75, 1.5, 4, 7, 24 hours post-dose. Rats were euthanized on Day 14, 24 hours after the last dose. Body weights were measured on Days 3, 6, 9, 12 and 14. Endpoints to evaluate kidney function included serum chemistry (BUN and creatinine; Day 7 and Day 14), urine biomarkers (albumin, clusterin, cystatin C, osteopontin, KIM1, and alpha GST; Day 6 and Day 9), hematology (Day 14) and histopathology. For histopathology, kidney, liver, and bone marrow were evaluated. Samples collected for histopathology were sectioned at 5 μm, stained with hematoxylin and eosin (H&E), and examined by a board certified veterinary pathologist. BUN, creatine and hematology parameters were measured using a HESKA veterinary system (Loveland, CO). Urine samples were assayed using MSD electrochemiluminescent immunoassay. Samples were analyzed in triplicate using a Sector Imager 6000 instrument (MSD, Rockville, Maryland). Kits used were the Rat Kidney Injury Panel 1 (albumin, Kim-1, NGAL/lipocalin-2, osteopontin), the Argutus Acute Kidney Injury Panel (α-GST, GSTYb1, RPA-1) and the Clusterin Test Kit (MSD), according to the manufacturer’s instructions. Urinary biomarker concentrations were normalized to urinary creatinine to account for differences in urine production and flow rates.

in vitro = settings: mouse
Description: (§1) When considering compounds for potential readthrough therapy it is important to monitor cellular and animal safety. In order to determine the most promising compounds to further evaluate in in vivo safety, we measured cytotoxicity in two different cell types. We used activated human peripheral blood mononuclear cells (PBMCs) (Table 2 and Fig 2D and 2E). PBMCs are a primary cell that when activated with phytohaemagglutinin (PHA) expand quickly and are commonly used as an in vitro surrogate for rapidly growing cells in the human body to evaluate cytotoxicity. Prior to advancing compounds into human studies, safety evaluation in rodents is performed. As an in vitro surrogate for rodent toxicity, we used primary mouse myoblasts.

[1] = Neuromast toxicity assay (DASPEI staining); settings: zebrafish, zebrafish embryos 5 dpf, neuromasts (hair cells), other: embryos exposed to the drug in 24-well plates, zebrafish embryos 5 dpf
primary mouse myoblasts = test: Cytotoxicity in myoblasts; settings: read-out: Myoblast CC50; individual determinations (S1 File)
Description: as §1

[2] = 10 mg/kg daily s.c. 14 days, 6 kidneys examined
[3] = 20 mg/kg daily s.c. 14 days, kidneys examined: X2 6, G418 3
[4] = 40 mg/kg daily s.c. 14 days, 6 kidneys examined, listed as X2
[5] = 40 mg/kg daily s.c. 14 days, 6 kidneys examined, listed as gentamicin X2

SMILES: CN[C@@H]1[C@@H](O)[C@@H](O[C@@H]2[C@@H](O)[C@H](O[C@H]3O[C@H]([C@@H](C)O)[C@@H](O)[C@H](O)[C@H]3N)[C@@H](N)C[C@H]2N)OC[C@]1(C)O [G418, reference compound]
- CC50 (in vivo; Neuromast (CC50), zebrafish embryos 5 dpf, 24 hours exposure, maximum of two measurements): 2.8 ± 1.2 µM
- CC50 (in vivo; Neuromast CC50, individual determinations (S1 File)): 1.9 µM
- Animals completed study (Male Sprague Dawley rats; 10 mg/kg daily s.c. 14 days): 6
- Kidneys: Mineralization (number of kidneys) (Male Sprague Dawley rats; [2]): 1
- Kidneys: Pelvic dilation (number of kidneys) (Male Sprague Dawley rats; [2]): 2
- Kidneys: Tubular necrosis (number of kidneys) (Male Sprague Dawley rats; [2]): 4
- Animals completed study (Male Sprague Dawley rats; 20 mg/kg daily s.c. 14 days): 3
- Kidneys: Mineralization (number of kidneys) (Male Sprague Dawley rats; [3]): 0
- rats euthanized or found dead (Male Sprague Dawley rats; 20 mg/kg daily s.c., 14 days, 6 rats): three rats were either euthanized or found dead
- creatinine and blood urea nitrogen (BUN) levels (Male Sprague Dawley rats; 20 mg/kg, Days 7 and 14, p<0.05 vs vehicle): significantly elevated
- hematology: numbers of red and white blood cells or platelets vs vehicle (Male Sprague Dawley rats): no obvious differences across groups
- accumulation over time (toxicokinetics) (Male Sprague Dawley rats): no accumulation
- urine alpha-GST levels (Male Sprague Dawley rats; G418 20 mg/kg compared to gentamicin X2 40 mg/kg): greatest decrease
- histopathology of liver and bone marrow (Male Sprague Dawley rats): No histopathology findings
- urine lipocalin (Male Sprague Dawley rats): not affected
- urine albumin, clusterin, cystatin C and osteopontin (Male Sprague Dawley rats): increased
- CC50 (in vitro; Myoblast (CC50), average ± SD): 166 ± 100 µM
- CC50 (in vitro; Myoblast CC50, AVERAGE (S1 File)): 166 µM

SMILES: CN[C@@H]1[C@@H](O)[C@@H](O[C@@H]2[C@@H](O)[C@H](O[C@H]3O[C@H](CO)[C@@H](O)[C@H](O)[C@H]3N)[C@@H](N)C[C@H]2N)OC[C@]1(C)O (stereo in doubt) [Gentamicin X2, gentamicin X2]
- Animals completed study (Male Sprague Dawley rats; 10 mg/kg daily s.c. 14 days): 6
- Kidneys: Mineralization (number of kidneys) (Male Sprague Dawley rats; [2]): 0
- Kidneys: Pelvic dilation (number of kidneys) (Male Sprague Dawley rats; [2]): 0
- Kidneys: Tubular necrosis (number of kidneys) (Male Sprague Dawley rats; [2]): 2
- Animals completed study (Male Sprague Dawley rats; 20 mg/kg daily s.c. 14 days): 6
- Kidneys: Mineralization (number of kidneys) (Male Sprague Dawley rats; [3]): 0
- Kidneys: Pelvic dilation (number of kidneys) (Male Sprague Dawley rats; [3]): 1
- Kidneys: Tubular necrosis (number of kidneys) (Male Sprague Dawley rats; [3]): 2
- effect on body weight (Male Sprague Dawley rats; 20 mg/kg daily s.c., 14 days): did not affect body weight
- Animals completed study (Male Sprague Dawley rats; 40 mg/kg daily s.c. 14 days): 6
- Kidneys: Mineralization (number of kidneys) (Male Sprague Dawley rats; 40 mg/kg daily s.c. 14 days, 6 kidneys examined): 0
- Kidneys: Pelvic dilation (number of kidneys) (Male Sprague Dawley rats; [4]): 4
- Kidneys: Tubular necrosis (number of kidneys) (Male Sprague Dawley rats; [4]): 4
- Kidneys: Pelvic dilation (number of kidneys) (Male Sprague Dawley rats; [5]): four of six kidneys
- Kidneys: Tubular necrosis (number of kidneys) (Male Sprague Dawley rats; [5]): four of six kidneys
- effect on body weight (Male Sprague Dawley rats; 40 mg/kg daily s.c., 14 days): only slightly reduced body weight
- hematology: numbers of red and white blood cells or platelets vs vehicle (Male Sprague Dawley rats): no change; also recorded: no obvious differences across groups
- accumulation over time (toxicokinetics) (Male Sprague Dawley rats): no accumulation
- tolerability (Male Sprague Dawley rats; all dose levels, 14 days daily s.c.): well-tolerated at all dose levels
- rats found dead or euthanized (Male Sprague Dawley rats; any of the three dose groups (10, 20, 40 mg/kg), 14 days): No rats were found dead or euthanized
- histopathology of liver and bone marrow (Male Sprague Dawley rats): No histopathology findings
- urine lipocalin (Male Sprague Dawley rats): not affected
- urine albumin, clusterin, cystatin C and osteopontin (Male Sprague Dawley rats): not increased
- CC50 at 24 h ([1]; Neuromast (CC50), 24 hours exposure, maximum of two measurements): 14 ± 7 µM
- CC50 at 24 h ([1]; Neuromast CC50, AVERAGE (S1 File)): 13.9 µM
- CC50 (in vitro; primary mouse myoblasts, Myoblast (CC50), average ± SD): 834 ± 623 µM
- CC50 (in vitro; primary mouse myoblasts, Myoblast CC50, AVERAGE (S1 File)): 834 µM
- CC50 (primary mouse myoblasts): 614 µM and 402 µM and 481 µM and 324 µM and 1880 µM and 1300 µM
